Results from patent US8466145B2, “Dipeptidyl peptidase IV inhibitors” (Orchid Chemicals & Pharmaceuticals Limited, priority 2009, dated 2013).

How the values were obtained:
[1] = molecular target: T1, human recombinant Dipeptidyl peptidase 9 enzyme (hrDPP 9) (Homo sapiens, UniProt Q86TI2); assay: DPP 9 assay, cleavage of H-Gly-Pro-AMC; type: biochemical; settings: for Selectivity (Fold) DPP 9: selectivity for DPP-IV over DPP 9
T1 construct: purchased R&D systems
Experimental: DPP 9 activity was determined by the cleavage rate of 7-amino 4-methylcoumarin (AMC) from the substrate H-Gly-Pro-AMC. In brief, the assay was conducted by adding 10 ng of human recombinant Dipeptidyl peptidase 9 enzyme (hrDPP 9, available commercially from R&D systems) in 70 μL of the assay buffer (50 mM TRIS and 5 mM EDTA, pH 7.7) to a 96 well black flat bottom microtitre plate. Test compound was added as 10 μL additions to all wells except blank and total activity wells. After incubation of test substance with enzyme for 30 minutes at room temperature, 10 μL of 100 μM substrate H-Gly-Pro-AMC was added. After mixing, the plate was left for 30 minutes at room temperature. Then the reaction was terminated by addition of 10 μL of 25% Glacial Acetic Acid. Fluorescence was measured using Spectra Max Gemini XS (Molecular Devices, USA) at an excitation filter of 360 nm and emission filter of 460 nm.
Test compound dissolved in DMSO were diluted with assay buffer at different concentrations and tested in duplicates. Percentage inhibition was calculated with respect to total activity. IC50 value was calculated by using Prism Software.

[2] = molecular target: T2, human recombinant Dipeptidyl peptidase IV enzyme (hrDPP IV) (Homo sapiens, UniProt P27487); assay: DPP IV assay, cleavage of H-Gly-Pro-AMC by human recombinant DPP-IV enzyme; type: biochemical; settings: for inhibition at 0.3 µM: 300 nM compound concentration
T2 construct: purchased R&D systems
T2 sequence (P27487 whole entry): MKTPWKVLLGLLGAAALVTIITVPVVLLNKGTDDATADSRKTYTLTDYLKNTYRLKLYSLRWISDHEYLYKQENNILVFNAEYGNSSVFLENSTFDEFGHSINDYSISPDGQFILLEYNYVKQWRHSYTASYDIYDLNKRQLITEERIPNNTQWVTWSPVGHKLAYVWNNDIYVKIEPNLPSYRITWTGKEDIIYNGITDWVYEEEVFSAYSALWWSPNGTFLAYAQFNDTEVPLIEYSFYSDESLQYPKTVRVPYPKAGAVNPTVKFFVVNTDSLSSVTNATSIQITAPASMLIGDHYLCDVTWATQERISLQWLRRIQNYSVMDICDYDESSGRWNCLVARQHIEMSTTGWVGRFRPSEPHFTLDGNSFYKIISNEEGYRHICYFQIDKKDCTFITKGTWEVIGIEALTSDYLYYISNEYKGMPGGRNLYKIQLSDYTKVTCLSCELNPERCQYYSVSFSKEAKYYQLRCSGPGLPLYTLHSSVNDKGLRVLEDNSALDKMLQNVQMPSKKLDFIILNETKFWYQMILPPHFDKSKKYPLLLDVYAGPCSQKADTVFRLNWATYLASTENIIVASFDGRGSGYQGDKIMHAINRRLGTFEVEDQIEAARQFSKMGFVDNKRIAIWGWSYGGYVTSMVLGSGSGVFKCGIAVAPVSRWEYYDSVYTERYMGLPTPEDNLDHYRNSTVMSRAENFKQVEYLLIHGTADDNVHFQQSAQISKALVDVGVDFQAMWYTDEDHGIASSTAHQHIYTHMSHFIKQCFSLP
Experimental: DPP IV activity was determined by the cleavage rate of 7-amino 4-methylcoumarin (AMC) from the substrate H-Gly-Pro-AMC. In brief, the assay was conducted by adding 3 ng of human recombinant Dipeptidyl peptidase IV enzyme (hrDPP IV, available commercially from R&D systems) in 70 μL of the assay buffer (25 mM HEPES, 140 mM NaCl and 1% BSA, pH 7.8) to a 96 well black flat bottom microtitre plate. Test compounds were added as 10 μL additions to all wells except blank and total activity wells. After incubation of test substance with enzyme for 60 minutes at room temperature, 10 μL of 100 μM substrate H-Gly-Pro-AMC was added. After mixing, the plate was left for 20 minutes at room temperature. Then the reaction was terminated by addition of 10 μL of 25% glacial acetic acid. Fluorescence was measured using Spectra Max Gemini XS (Molecular Devices, USA) at an excitation filter of 360 nm and emission filter of 460 nm.
Test compounds dissolved in DMSO were diluted with assay buffer at different concentrations and tested in duplicates. Percentage inhibition was calculated with respect to total activity. IC50 value was calculated using Prism Software.

[3] = molecular target: T3, human recombinant Dipeptidyl peptidase 8 enzyme (hrDPP 8) (Homo sapiens, UniProt Q6V1X1); assay: DPP 8 assay, cleavage of H-Ala-Pro-AFC; type: biochemical; settings: for Selectivity (Fold) DPP 8: selectivity for DPP-IV over DPP 8
T3 construct: purchased R&D systems
T3 sequence (Q6V1X1 whole entry): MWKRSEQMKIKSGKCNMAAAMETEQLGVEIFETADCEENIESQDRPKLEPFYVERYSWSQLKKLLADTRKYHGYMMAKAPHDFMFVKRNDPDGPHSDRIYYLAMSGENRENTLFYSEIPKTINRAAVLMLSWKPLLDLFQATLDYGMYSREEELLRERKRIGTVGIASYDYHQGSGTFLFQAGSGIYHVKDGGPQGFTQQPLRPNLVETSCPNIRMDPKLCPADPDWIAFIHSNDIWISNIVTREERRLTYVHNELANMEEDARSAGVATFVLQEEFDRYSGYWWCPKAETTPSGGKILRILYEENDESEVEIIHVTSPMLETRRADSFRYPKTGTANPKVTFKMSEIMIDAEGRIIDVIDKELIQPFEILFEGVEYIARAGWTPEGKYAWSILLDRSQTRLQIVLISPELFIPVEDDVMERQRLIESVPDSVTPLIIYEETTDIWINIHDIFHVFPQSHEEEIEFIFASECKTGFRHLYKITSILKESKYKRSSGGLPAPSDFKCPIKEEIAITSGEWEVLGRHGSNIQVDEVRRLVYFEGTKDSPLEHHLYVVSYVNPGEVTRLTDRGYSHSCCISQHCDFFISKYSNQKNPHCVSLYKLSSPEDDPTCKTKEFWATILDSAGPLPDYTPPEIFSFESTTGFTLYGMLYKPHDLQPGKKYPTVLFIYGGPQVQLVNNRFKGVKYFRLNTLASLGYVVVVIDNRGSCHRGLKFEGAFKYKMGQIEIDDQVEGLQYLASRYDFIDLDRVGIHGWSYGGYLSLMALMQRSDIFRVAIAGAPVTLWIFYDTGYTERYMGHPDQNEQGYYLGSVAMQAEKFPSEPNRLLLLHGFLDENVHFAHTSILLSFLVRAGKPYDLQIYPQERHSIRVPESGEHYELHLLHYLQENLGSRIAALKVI
Experimental: DPP 8 activity was determined by the cleavage rate of 7-amino 4-fluoromethylcoumarin (AFC) from the substrate H-Ala-Pro-AFC. In brief, the assay was conducted by adding 30 ng of human recombinant Dipeptidyl peptidase 8 enzyme (hrDPP 8, available commercially from R&D systems) in 70 μL of the assay buffer (50 mM TRIS and 5 mM EDTA, pH 7.7) to a 96 well black flat bottom microtitre plate. Test compound was added as 10 μL additions to all wells except blank and total activity wells. After incubation of test substance with enzyme for 30 minutes at room temperature, 10 μL of 100 μM substrate H-Ala-Pro-AFC was added. After mixing, the plate was left for 30 minutes at room temperature. Then the reaction was terminated by addition of 10 μL of 25% Glacial Acetic Acid. Fluorescence was measured using Spectra Max Gemini XS (Molecular Devices, USA) at an excitation filter of 400 nm and emission filter of 505 nm.
Test compound dissolved in DMSO were diluted with assay buffer at different concentrations and tested in duplicates. Percentage inhibition was calculated with respect to total activity. IC50 value was calculated using Prism Software.

[4] = system: C57BL/6 mice; assay: Oral glucose tolerance test; type: in vivo; settings: compound 10 mg/kg; for Antihyperglycemic activity, reduction in AUC (blood glucose), Time 6.00 hr: glucose 2 g/kg challenge 6.00 hr after compound administration, NA = No activity
Experimental: Effect of compound on glucose tolerance was examined in 7 week old C57BL/6 mice. Animals were kept for 18 h fasting and were challenged with glucose (2 g/kg) 30 min after compound (10 mg/kg) administration. Blood samples for glucose measurement were obtained by tail bleed pre dose and at serial time points after the glucose load (30, 60 and 120 minutes). Blood glucose estimation was done by using ContourTS active strips on glucometer (Bayer). To find the time response on glucose excursion, animals were challenged with glucose at different time point after compound administration (0.5, 2, 4, 6, 8, 12 or 24 hours) at blood glucose was measured at pre (0 minute) and post (30, 60 and 120 minutes) glucose load.
Results of blood glucose were expressed as area under curve (AUC) was calculated using Prism software.

T1 sequence (Q86TI2 whole entry): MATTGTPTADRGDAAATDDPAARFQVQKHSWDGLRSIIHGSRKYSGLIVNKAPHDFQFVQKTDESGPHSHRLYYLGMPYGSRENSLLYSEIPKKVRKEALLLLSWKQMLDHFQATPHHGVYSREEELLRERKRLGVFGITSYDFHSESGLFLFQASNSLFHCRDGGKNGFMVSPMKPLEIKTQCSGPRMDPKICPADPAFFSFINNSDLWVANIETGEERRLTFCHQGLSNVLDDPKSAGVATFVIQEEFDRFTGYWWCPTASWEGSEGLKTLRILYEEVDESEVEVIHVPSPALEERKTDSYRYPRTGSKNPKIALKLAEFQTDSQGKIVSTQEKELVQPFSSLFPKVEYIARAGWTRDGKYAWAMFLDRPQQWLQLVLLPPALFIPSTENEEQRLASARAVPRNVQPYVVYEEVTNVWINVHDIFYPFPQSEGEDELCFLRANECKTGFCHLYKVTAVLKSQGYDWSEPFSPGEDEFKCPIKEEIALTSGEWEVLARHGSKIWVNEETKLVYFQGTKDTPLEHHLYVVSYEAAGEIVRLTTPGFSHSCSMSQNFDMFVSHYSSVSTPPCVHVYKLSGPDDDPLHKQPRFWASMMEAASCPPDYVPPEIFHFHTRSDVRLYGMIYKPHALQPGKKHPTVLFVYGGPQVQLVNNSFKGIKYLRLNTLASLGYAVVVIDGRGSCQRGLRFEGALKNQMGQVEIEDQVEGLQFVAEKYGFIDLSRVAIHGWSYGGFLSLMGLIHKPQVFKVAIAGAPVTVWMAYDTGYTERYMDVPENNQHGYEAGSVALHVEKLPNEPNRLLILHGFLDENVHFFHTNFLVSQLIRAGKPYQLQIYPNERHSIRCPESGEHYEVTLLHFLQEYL

SMILES	melting point	IC50 [2]	Selectivity (Fold) DPP 9 [1]	inhibition at 0.3 µM [2]	further results
CC1(NCC(=O)N2C[C@@H](F)C[C@H]2C#N)CCC(CS(=O)(=O)c2ccc(S(C)(=O)=O)cc2)C1(C)C (stereo in doubt) [Example 45, (2S,4S)-4-Fluoro-1-(2-((1S,3R)-1,2,2-trimethyl-3-((4-(methylsulfonyl)phenylsulfonyl)methyl)cyclopentylamino)acetyl)pyrrolidine-2-carbonitrile]	211 to 216 °C	59 nM			IC50 ([1]; human recombinant DPP 9, read-out: DPP 9 (cell printed in μM in the Selectivity column)): > 300 µM; IC50 ([3]; human recombinant DPP 8, read-out: DPP 8 (cell printed in μM in the Selectivity column)): > 300 µM
CC1(C)[C@H](CN2CCCCS2(=O)=O)CC[C@]1(C)NCC(=O)N1C[C@@H](F)C[C@H]1C#N [Example 30, (2S,4S)-1-(2-((1S,3R)-3-[(1,1-Dioxido-1,2-thiazinan-2-yl)methyl]-1,2,2-trimethylcyclopentylamino)acetyl)-4-fluoropyrrolidine-2-carbonitrile]	186 to 190 °C	7.29 nM	>1250 Fold		Antihyperglycemic activity, reduction in AUC (blood glucose), Time 6.00 hr [4]: 30.90%
Cc1nc(C[C@@H]2CC[C@](C)(NCC(=O)N3C[C@@H](F)C[C@H]3C#N)C2(C)C)no1 [Example 55, (2S,4S)-4-Fluoro-1-(2-((1S,3S)-1,2,2-trimethyl-3-((5-methyl-1,2,4-oxadiazol-3-yl)methyl)cyclopentylamino)acetyl)pyrrolidine-2-carbonitrile]	131 to 133 °C	4.39 nM	>9000 Fold		Antihyperglycemic activity, reduction in AUC (blood glucose), Time 0.50 hr ([4]; glucose 2 g/kg challenge 0.50 hr after compound administration): 48.30%; Antihyperglycemic activity, reduction in AUC (blood glucose), Time 4.00 hr ([4]; glucose 2 g/kg challenge 4.00 hr after compound administration): 45.69%; Antihyperglycemic activity, reduction in AUC (blood glucose), Time 6.00 hr [4]: 28.28%; Antihyperglycemic activity, reduction in AUC (blood glucose), Time 8.00 hr ([4]; glucose 2 g/kg challenge 8.00 hr after compound administration): 18.63%
CC1(C)[C@H](Cc2noc(C(F)(F)F)n2)CC[C@]1(C)NCC(=O)N1C[C@@H](F)C[C@H]1C#N [Example 56, (2S,4S)-4-Fluoro-1-(2-((1S,3S)-1,2,2-trimethyl-3-((5-(trifluoromethyl)-1,2,4-oxadiazol-3-yl)methyl)cyclopentylamino)acetyl)pyrrolidine-2-carbonitrile]	130 to 131 °C	19.6 nM		95.7%	Antihyperglycemic activity, reduction in AUC (blood glucose), Time 6.00 hr [4]: 7.07%
CC(C)c1nc(C[C@@H]2CC[C@](C)(NCC(=O)N3C[C@@H](F)C[C@H]3C#N)C2(C)C)no1 [Example 61, (2S,4S)-4-Fluoro-1-(2-((1S,3S)-3-((5-isopropyl-1,2,4-oxadiazol-3-yl)methyl)-1,2,2-trimethylcyclopentylamino)acetyl)pyrrolidine-2-carbonitrile methanesulfonate]		13.8 nM	>7271 Fold	96.2%	
CC1(C)[C@H](Cc2noc(-c3ccc(F)cc3)n2)CC[C@]1(C)NCC(=O)N1C[C@@H](F)C[C@H]1C#N [Example 62, (2S,4S)-4-Fluoro-1-(2-((1S,3S)-3-((5-(4-fluorophenyl)-1,2,4-oxadiazol-3-yl)methyl)-1,2,2-trimethylcyclopentylamino)acetyl)pyrrolidine-2-carbonitrile]	158 to 216 °C			79.8%	
CC1(C)[C@H](Cc2noc(-c3ccncc3)n2)CC[C@]1(C)NCC(=O)N1C[C@@H](F)C[C@H]1C#N [Example 63, (2S,4S)-4-Fluoro-1-(2-((1S,3S)-1,2,2-trimethyl-3-((5-(pyridin-4-yl)-1,2,4-oxadiazol-3-yl)methyl)cyclopentylamino)acetyl)pyrrolidine-2-carbonitrile]	180 to 184 °C	19.2 nM	>1850 Fold	92.6%	
CC1(C)[C@H](NCC(=O)N2C[C@@H](F)C[C@H]2C#N)CC[C@]1(C)c1nc(-c2ccc(F)cc2)no1 [Example 64, (2S,4S)-4-Fluoro-1-(2-((1R,3S)-3-(3-(4-fluorophenyl)-1,2,4-oxadiazol-5-yl)-2,2,3-trimethylcyclopentylamino)acetyl)pyrrolidine-2-carbonitrile]		76.1 nM	>250 Fold		Selectivity (Fold) DPP 8 [3]: >450 Fold
CC(C)c1noc([C@]2(C)CC[C@H](NCC(=O)N3C[C@@H](F)C[C@H]3C#N)C2(C)C)n1 [Example 67, (2S,4S)-4-Fluoro-1-(2-((1S,3R)-3-(3-isopropyl-1,2,4-oxadiazol-5-yl)-2,2,3-trimethylcyclopentylamino)acetyl)pyrrolidine-2-carbonitrile]	82 to 85 °C			79.2%	
CC1(C)[C@@H](NCC(=O)N2C[C@@H](F)C[C@H]2C#N)CC[C@@]1(C)c1nc(-c2cccnc2)no1 [Example 68, (2S,4S)-4-Fluoro-1-(2-((1S,3R)-2,2,3-trimethyl-3-(3-(pyridin-3-yl)-1,2,4-oxadiazol-5-yl)cyclopentylamino)acetyl)pyrrolidine-2-carbonitrile]	126 to 130 °C	40.2 nM	>15 Fold		Selectivity (Fold) DPP 8 [3]: >250 Fold
CC1(C)[C@H](NCC(=O)N2C[C@@H](F)C[C@H]2C#N)CC[C@]1(C)c1nc(-c2cccnc2)no1 [Example 69, (2S,4S)-4-Fluoro-1-(2-((1R,3S)-2,2,3-trimethyl-3-(3-(pyridin-3-yl)-1,2,4-oxadiazol-5-yl)cyclopentylamino)acetyl)pyrrolidine-2-carbonitrile]	70 to 75 °C	18.6 nM	>150 Fold		Selectivity (Fold) DPP 8 [3]: >1800 Fold
CC1(C)[C@H](NCC(=O)N2C[C@@H](F)C[C@H]2C#N)CC[C@]1(C)c1nc(-c2ccncc2)no1 [Example 71, (2S,4S)-4-Fluoro-1-(2-((1R,3S)-2,2,3-trimethyl-3-(3-(pyridin-4-yl)-1,2,4-oxadiazol-5-yl)cyclopentylamino)acetyl)pyrrolidine-2-carbonitrile]	167 to 171 °C	22.8 nM			
CN1C[C@]2(C)CC[C@](NCC(=O)N3C[C@@H](F)C[C@H]3C#N)(C1)C2(C)C [Example 76, (2S,4S)-4-Fluoro-1-(2-((1R,5R)-3,5,8,8-tetramethyl-3-azabicyclo[3.2.1]octan-1-ylamino)acetyl)pyrrolidine-2-carbonitrile]	122 to 126 °C			4.25%	
CC1(C)[C@@H](NCC(=O)N2C[C@@H](F)C[C@H]2C#N)CC[C@@]1(C)CCCn1cncn1 [Example 83, (2S,4S)-1-(2-((1S,3R)-3-(3-(1H-1,2,4-Triazol-1-yl)propyl)-2,2,3-trimethylcyclopentylamino)acetyl)-4-fluoropyrrolidine-2-carbonitrile]	152 to 154 °C	4.03 nM		93.9%	
